Assay results published in patent US4086239A, “Thiazole bis-phosphates and phosphonates, intermediates, and insecticidal compositions and methods” (priority 1977, dated 1978).

Each compound was assayed on Black Bean Aphid [Aphis fabae (Scop.)] (assay: Direct spray assay on black bean aphid). Details: % by weight in acetone-water, mortality after 3 days.
Assay type: in vivo
Method: D. Direct Spray Assay on Black Bean Aphid [Aphis fabae (Scop.)]
A nasturtium plant (Tropaeolum sp.), approximately 5 cm tall, is transplanted into sandy loam soil in a 3-inch clay pot and infested with 25-50 black bean aphids of mixed ages. Twenty-four hours later the plant is sprayed, to the point of runoff, with a 50-50 acetone-water solution of the test chemical. The treated plant is held in the greenhouse and mortality is recorded after 3 days. The primary screening level for this test is 0.05% by weight of the test compound in the acetone-water solution.
(§1) For a particular insect, each compound was initially tested at the primary screening level. For the two-spotted mite, the testing stopped at this point. Those compounds showing less than 50% kill are represented in the table by the primary screening level preceded by a "greater than" sign. For those showing more than 50% kill, a "less than" sign is used. For all other insects those compounds showing greater than 50% kill at the primary screening level were then tested at successively lower levels, until the level was found at which approximately 50% kill was achieved. This level is listed as the LD50 (50% lethal dose) value in Table III. For those compounds showing approximately 50% kill at the primary screening level, the primary screening level itself is listed as the LD50.
(§2) In cases where this level was found, the level is reported as the LD50. When the level of 50% kill was not found, the number listed is the highest concentration tested, whether primary screen or higher, preceded by a "greater than" sign to indicate that a higher level than reported must be used to achieve 50% kill.
In the case of CCOP(=S)(OCC)SCC(=O)Nc1csc(NC(=O)CSP(=S)(OCC)OCC)n1 [Compound 1], the “Approximate LD50, BBA (black bean aphid)” value is reported as “.05%”. COP(=S)(OC)SCC(=O)Nc1csc(NC(=O)CSP(=S)(OC)OC)n1 [Compound 2, 2,4-Bis(O,O -dimethylphosphorodithioylacetamide)thiazole] was tested, and the “Approximate LD50, BBA (black bean aphid)” value was “.002%”.

Each compound was assayed on Southern House Mosquito [Culex pipiens quinquefasciatus (Say)] (assay: Southern house mosquito larvae test). Details: ppm by weight in aqueous solution; third-instar larvae; mortality after 48 hours.
Assay type: in vivo
Method: K. Southern House Mosquito [Culex pipiens quinquefasciatus (Say)]
Insecticidal activity is determined using third-instar larvae of the mosquito (Culex pipiens quinquefasciatus). Ten larvae are placed in a 6-ounce, number 67 Dixie wax paper cup containing 100 milliliters of an aqueous solution of the test chemical. The treated larvae are stored at 70° F, and 48 hours later the mortality is recorded. The primary screening level for this test is 1 ppm by weight of the test compound in the solution.
as §1, §2
CCOP(=S)(OCC)SCC(=O)Nc1csc(NC(=O)CSP(=S)(OCC)OCC)n1 [Compound 1] was tested, and the “Approximate LD50, MOS (Southern house mosquito)” value was “.8 ppm”.

Same assay, conditions: ppm by weight in aqueous solution; third-instar larvae; mortality after 48 hours; read-out: Approximate LD50, MOS (Southern house mosquito)
For COP(=S)(OC)SCC(=O)Nc1csc(NC(=O)CSP(=S)(OC)OC)n1 [Compound 2, 2,4-Bis(O,O -dimethylphosphorodithioylacetamide)thiazole], the LC50 was > 1 µg/mL.

What follows are compounds tested on Green Peach Aphid [Myzus persicae (Sulzer)] (assay: Direct spray assay on green peach aphid). Details: % by weight in acetone-water, mortality after 3 days.
Assay type: in vivo
Method: E. Direct Spray Assay on Green Peach Aphid [Myzus persicae (Sulzer)]
A radish plant (Rhaphanus sativus), approximately 2 cm tall, is transplanted into sandy loam soil in a 3-inch clay pot and infested with 25-50 green peach aphids of mixed ages. Twenty-four hours later the plant is sprayed, to the point of runoff, with a 50-50 acetone-water solution of the test compound. The treated plant is held in a greenhouse and mortality is recorded after 3 days. The primary screening level for this test is 0.05% by weight of the test compound in the acetone-water solution.
as §1, §2
In the case of COP(=S)(OC)SCC(=O)Nc1csc(NC(=O)CSP(=S)(OC)OC)n1 [Compound 2, 2,4-Bis(O,O -dimethylphosphorodithioylacetamide)thiazole], the “Approximate LD50, GPA (green peach aphid)” value is reported as “.03%”.

What follows are compounds tested on Two-Spotted Mite [Tetranychus urticae (Koch)] (assay: Two-spotted mite plant dip test). Details: eggs; tested at primary screening level 0.05% only; < means more than 50% kill, > less than 50% kill; 7 days.
Assay type: in vivo
Method: J. Two-Spotted Mite [Tetranychus urticae (Koch)]
A pinto bean plant (Phaseolus sp.), approximately 10 cm tall is transplanted into sandy loam soil in a 3-inch clay pot and infested with two-spotted mites of mixed ages and sexes. Twenty-four hours later the infested plants are inverted and dipped for 2-3 seconds in a 50-50 acetone-water solution of the test compound. The treated plant is held in a greenhouse for 7 days. Mortality is then determined for both the adult mites and the nynmphs hatching from eggs which were on the plants at the time of treatment. The primary screening level for this test is 0.05% by weight of the test compound in the acetone-water solution.
as §1
For CCOP(=S)(OCC)SCC(=O)Nc1csc(NC(=O)CSP(=S)(OCC)OCC)n1 [Compound 1], the “Approximate LD50, 2SM (two-spotted mite) (2) eggs” value was “< .05%”. For COP(=S)(OC)SCC(=O)Nc1csc(NC(=O)CSP(=S)(OC)OC)n1 [Compound 2, 2,4-Bis(O,O -dimethylphosphorodithioylacetamide)thiazole], the “Approximate LD50, 2SM (two-spotted mite) (2) eggs” value was “> .05%”.

Same assay, conditions: post-embryonic; tested at primary screening level 0.05% only; < means more than 50% kill, > less than 50% kill; 7 days
With CCOP(=S)(OCC)SCC(=O)Nc1csc(NC(=O)CSP(=S)(OCC)OCC)n1 [Compound 1] the “Approximate LD50, 2SM (two-spotted mite) (1) post-embryonic” value was “< .05%”. COP(=S)(OC)SCC(=O)Nc1csc(NC(=O)CSP(=S)(OC)OC)n1 [Compound 2, 2,4-Bis(O,O -dimethylphosphorodithioylacetamide)thiazole] was tested, and the “Approximate LD50, 2SM (two-spotted mite) (1) post-embryonic” value was “< .05%”.

These compounds were tested on German Cockroach [Blatella germanica (Linne)] (assay: German cockroach spray insecticide evaluation). Details: % by weight in acetone-water spray; nymphs; mortality after 7 days.
Assay type: in vivo
Method: B. German Cockroach [Blatella germanica (Linne)]
The test compound is diluted in a 50-50 acetone-water solution. Two milliliters of the solution are sprayed through a DeVilbiss type EGA hand spray gun into a circular cardboard cage contaning 10 1-month-old German Cockroach nymphs. The test cage is covered on the bottom with cellophane and the top with tulle netting. Percent mortality is recorded after 7 days. The primary screening level for this test is 0.1% by weight of the test compound in the acetone-water solution.
as §1, §2
In the case of CCOP(=S)(OCC)SCC(=O)Nc1csc(NC(=O)CSP(=S)(OCC)OCC)n1 [Compound 1], the “Approximate LD50, GR (German cockroach)” value is reported as “> .1%”. COP(=S)(OC)SCC(=O)Nc1csc(NC(=O)CSP(=S)(OC)OC)n1 [Compound 2, 2,4-Bis(O,O -dimethylphosphorodithioylacetamide)thiazole] was tested, and the “Approximate LD50, GR (German cockroach)” value was “> .1%”.

What follows are compounds tested on Lygus bug [Lygus hesperus (Knight)] (assay: Lygus bug spray insecticide evaluation). Details: % by weight in acetone-water spray; adults; mortality after 48 hours.
Assay type: in vivo
Method: C. Lygus bus [Lygus hesperus (Knight)]
The test compound is dissolved in a 50-50 acetone-water solution. Two cubic centimeters of the solution are sprayed through a DeVilbiss-type EGA hand spray gun into a circular cardboard cage covered on the bottom with cellophane and the top with tulle netting, containing one string bean pod and 10 adult lygus bugs. Percent mortality is recorded after 48 hours. The primary screening level for this test is 0.5% by weight of the test compound in the acetone-water solution.
as §1, §2
For CCOP(=S)(OCC)SCC(=O)Nc1csc(NC(=O)CSP(=S)(OCC)OCC)n1 [Compound 1], the “Approximate LD50, LB (Lygus bug)” value was “> .05%”. For COP(=S)(OC)SCC(=O)Nc1csc(NC(=O)CSP(=S)(OC)OC)n1 [Compound 2, 2,4-Bis(O,O -dimethylphosphorodithioylacetamide)thiazole], the “Approximate LD50, LB (Lygus bug)” value was “> .05%”.

Each compound was assayed on Black Bean Aphid [Aphis fabae (Scop.)] (assay: Systemic assay on black bean aphid). Details: ppm by weight in soil, mortality after seven days.
Assay type: in vivo
Method: F. Systemic Assay on Black Bean Aphid [Aphis fabae (Scop.)]
The test chemical is diluted in acetone and an aliquot is thoroughly mixed into 500 grams of dry, sandy loam soil. The treated soil is placed in a pint ice cream carton and a nasturtium plant (Tropaeolum sp.) approximately 5 cm tall is transplanted into the carton. The plant is then infested with approximately 25 black bean aphids of mixed ages and placed in the greenhouse. Seven days later mortality is recorded. The primary screening level for this test is 10 ppm by weight of the test compound in the soil.
as §1, §2
With CCOP(=S)(OCC)SCC(=O)Nc1csc(NC(=O)CSP(=S)(OCC)OCC)n1 [Compound 1] the “Approximate LD50, BAS (bean aphid systemic)” value was > 10 ppm. With COP(=S)(OC)SCC(=O)Nc1csc(NC(=O)CSP(=S)(OC)OC)n1 [Compound 2, 2,4-Bis(O,O -dimethylphosphorodithioylacetamide)thiazole] the “Approximate LD50, BAS (bean aphid systemic)” value was > 10 ppm.

The compounds below were run on Housefly [Musca domestica (L.)] (assay: Housefly insecticide evaluation). Details: per 25 female houseflies; mortality after 48 hours.
Assay type: in vivo
Method: A. Housefly [Musca domestica (L.) ]
The test compound is diluted in acetone and an aliquot is pipetted onto the bottom of a 55 × 15 mm aluminum dish. To insure even spreading on the bottom of the dish, 1 ml of acetone containing 0.02% peanut oil is added. After all the solvent has evaporated, the dish is placed in a circular cardboard cage containing 25 1-day-old female houseflies. The cage is covered on the bottom with cellophane and the top with tulle netting, and contains a sugar-water saturated cotton plug for maintenance of the flies. Mortality is recorded after 48 hours. The primary screening level for this test is 100 micrograms of the test compound per 25 female houseflies.
as §1, §2
In the case of CCOP(=S)(OCC)SCC(=O)Nc1csc(NC(=O)CSP(=S)(OCC)OCC)n1 [Compound 1], the “Approximate LD50, HF (housefly)” value is reported as > 100 µg. For COP(=S)(OC)SCC(=O)Nc1csc(NC(=O)CSP(=S)(OC)OC)n1 [Compound 2, 2,4-Bis(O,O -dimethylphosphorodithioylacetamide)thiazole], the “Approximate LD50, HF (housefly)” value was > 100 µg.

The compounds below were run on Cabbage Looper [Trichoplusia ni (Hubner)] (assay: Cabbage looper leaf dip test). Details: % by weight in solution, larvae, 48 hours plus 5 days if survivors.
Assay type: in vivo
Method: (§3) A test solution is prepared by dissolving the test compound in a 50-50 acetone-water solution. A section of a curly dock (Rumex crispus) leaf, aproximately 2.5 centimeters wide and 4 centimeters long, is immersed in the test solution for 2-3 seconds, then placed on a wire screen to dry. The dried leaf is placed in a petri dish containing a moistened piece of filter paper, and infested with 5 second-instar salt-marsh caterpillar larvae. Mortality of the larvae is recorded 48 hours later. If surviving larvae are still present, a piece of synthetic media is added to the dish and the larvae are observed for an additional 5 days in order to detect delayed effects of the test compound. The primary screening level for this test is 0.05% by weight of the test compound in the solution.
H. Cabbage Looper [Trichoplusia ni (Hubner)]
The procedure for cabbage looper larvae is the same as that used for salt-marsh caterpillar larvae, except that a cotyledon of hyzini squash (Calabacita abobrinha) of approximately the same size as the curly dock leaf section is used in place of the latter. The primary screening level for this test is 0.1% by weight of the test compound in the solution.
as §1, §2
In the case of CCOP(=S)(OCC)SCC(=O)Nc1csc(NC(=O)CSP(=S)(OCC)OCC)n1 [Compound 1], the “Approximate LD50, CL (cabbage looper)” value is reported as “> .1%”. For COP(=S)(OC)SCC(=O)Nc1csc(NC(=O)CSP(=S)(OC)OC)n1 [Compound 2, 2,4-Bis(O,O -dimethylphosphorodithioylacetamide)thiazole], the “Approximate LD50, CL (cabbage looper)” value was “> .1%”.

What follows are compounds tested on Salt-marsh Caterpillar [Estigmene acrea (Druryl)] (assay: Salt-marsh caterpillar leaf dip test). Details: % by weight in solution, larvae, 48 hours plus 5 days if survivors.
Assay type: in vivo
Method: G. Salt-marsh Caterpillar [Estigmene acrea (Druryl)]
as §3, §1, §2
For CCOP(=S)(OCC)SCC(=O)Nc1csc(NC(=O)CSP(=S)(OCC)OCC)n1 [Compound 1], the “Approximate LD50, SMC (salt-marsh caterpillar)” value was “> .05%”. For COP(=S)(OC)SCC(=O)Nc1csc(NC(=O)CSP(=S)(OC)OC)n1 [Compound 2, 2,4-Bis(O,O -dimethylphosphorodithioylacetamide)thiazole], the “Approximate LD50, SMC (salt-marsh caterpillar)” value was “> .05%”.

These compounds were tested on Tobacco Budworm [Heliotis virescens (F.)] (assay: Tobacco budworm leaf dip test). Details: % by weight in solution, larvae, 48 hours plus 5 days if survivors.
Assay type: in vivo
Method: as §3
I. Tobacco Budworm [Heliotis virescens (F.)]
Larvae of the tobacco budworm are used in this test in a procedure identical to that used for salt-marsh caterpillar larvae, except that a Romaine lettace (Latua sativa) leaf section of approximately the same size as the curly dock leaf section is used in place of the latter. The primary screening level for this test is 0.1% by weight of the test compound in the solution.
as §1
In cases where this level was found, the level is reported as the LD50. […]
CCOP(=S)(OCC)SCC(=O)Nc1csc(NC(=O)CSP(=S)(OCC)OCC)n1 [Compound 1] was tested, and the “Approximate LD50, TBW (tobacco budworm)” value was “> .1%”. COP(=S)(OC)SCC(=O)Nc1csc(NC(=O)CSP(=S)(OC)OC)n1 [Compound 2, 2,4-Bis(O,O -dimethylphosphorodithioylacetamide)thiazole] was tested, and the “Approximate LD50, TBW (tobacco budworm)” value was “> .1%”.
